Measurements from publication PMC9951290, “Comprehensive Structure–Activity Relationship Studies of Cepafungin Enabled by Biocatalytic C–H Oxidations” (ACS Central Science, 2023).
Read-outs that look alike come from different tables or passages of the source.

Experiments:
proteasome subunit β5 [1] = target: T1, proteasome subunit β5 (Homo sapiens, UniProt P28074); assay: In situ β5 proteasome activity assay (Suc-LLVY-AMC) in RPMI 8226 cells; assay type: cell-based; settings: RPMI 8226 cells
T1 construct: Following incubation of the compounds in cell culture for 6 h, cells were lysed; endogenous in cells; host or cells: RPMI 8226 (human multiple myeloma)
Description: A preliminary series of analogues, including the natural product glidobactin A (2), were synthesized by largely the same route (Scheme 2B, Figure 2).[36] Desoxycepafungin (38) was synthesized from Boc-Lys(Boc)-OH by peptide couplings/macrocyclization to assess the role of the macrocycle hydroxylation in 1 toward proteasome inhibition. The saturated cepafungin analogue 39 was designed to address the possible role of rigidity in the tail fragment induced by the diene seen in many natural cepafungins and glidobactins. An analogue bearing unsaturation at its macrocyclic lysine was envisioned to provide a head-to-head comparison between the cepafungin and syringolin macrocyclic core. […] Proteasome subunit β5 IC50 values were determined in situ in RPMI 8226 cells. In close agreement with prior measurement of β5 IC50 for natural 1 and 2 in purified yeast proteasome,[12] in our hands the additional branching methyl in 1 indeed leads to ca. 5-fold improved IC50 compared to 2 in RPMI 8226 cells. […] Likewise, saturation of the fatty acid fragment in 39 causes ca. 14-fold decrease in β5 inhibition. This preliminary series of analogues highlighted that the macrocyclic hydroxylation, fatty acid unsaturation, and terminal lipid functionality are critical for potent proteasome inhibitory activity.
Cellular assays were performed on human multiple myeloma RPMI 8226 cells (Figure 4). First, relative inhibition of proteasome subunits β5 and β2 for all analogues and the natural product was measured at 30 nM compound concentration. Following incubation of the compounds in cell culture for 6 h, cells were lysed, and fluorogenic subunit-specific peptide substrates Suc-LLVY-AMC (β5) or Ac-RLR-AMC (β2) were incubated with the lysates; fluorescence readings provided relative proteasome activity levels in comparison with DMSO (Figure 4A). Next, cytotoxicity screening was performed at 30 and 100 nM concentrations for sufficient coverage of dynamic range (Figure 4B). […] Therefore, the improved cytotoxicity of phenyl cepafungin 50 likely results from a more pronounced loss of β5 function in RPMI 8226 cells. This drastic increase in proteasome inhibition may be due to π-stacking of the lipid tail phenyl ring with the β6 subunit residues Tyr106 and/or Tyr5. The β2 subunit-bound natural product has residues Tyr102 and Phe103 on the adjacent β3 subunit oriented further away from the terminal lipid methyl groups, and presumably would not facilitate π-stacking to the extent possible at the adjacent β6 subunit (see Figure 3 and Figure S4). […] These combined modifications were made in hopes that the effects of both substitutions would be additive. […] The presence of a Thr residue next to the cepafungin macrocycle appears to be favored over the ethyl side chain of desoxy-Thr analogue 44 as indicated by cytotoxicity and hydrogen-bonding seen in the cepafungin-bound crystal structure (Figures 3 and 4B). […]
Mammalian cell culture and lysate preparation
Mammalian cells were maintained in RPMI-1640 media. All media were supplemented with 10% fetal bovine serum (FBS, Life Technologies Cat# 10437028), non-essential amino acids (Sigma-Aldrich Cat# M7145) and penicillin/streptomycin (Sigma-Aldrich Cat# P4333). Cells were grown at 37 °C under 5% CO2 atmosphere. […] Cells were lysed by needle sonication to obtain cell lysates and protein concentration was determined using the […]
fluorescence was read at A360ex/A460em. […]

proteasome subunit β5 [2] = target: T1, proteasome subunit β5; settings: in situ in RPMI 8226 cells; preliminary analogue series, Figure 2; cited from earlier work

CC(C)CCCCCC=CC=CC(=O)NC(C(=O)NC1CC(O)CCNC(=O)C=CC(C)NC1=O)C(C)O (stereo not shown) [compound 1, cepafungin I]
fold improved β5 IC50 of 1 compared to 2 (proteasome subunit β5 [1]): ca. 5 fold
fold improved β5 inhibition of 1 compared to 38 (proteasome subunit β5 [1]): ca. 11 fold
IC50 (proteasome subunit β5 [1]; 6 h, Suc-LLVY-AMC, n = 3, Figure 4D): 28 nM
IC50 (proteasome subunit β5 [2]): 16 ± 1 nM
